The experiment deals with MYT1 protein (Homo sapiens (Human), UniProt Q99640). Description: Test for binding to ATP binding site of MYT1 (Kinase Tracer 178 / Eu-Anti-GST antibody TR-FRET). The conditions noted are these: ATP binding site of MYT1, 30 minutes at room temperature. On the technique in general: TR-FRET usually uses a lanthanide donor and a delayed reading to cut background.

What is called IC50 is the concentration needed to halve the response being measured. Low values mean greater potency, high ones weaker potency.

Bounds are passed on as bounds.

Chain of MYT1 protein (Q99640 whole entry): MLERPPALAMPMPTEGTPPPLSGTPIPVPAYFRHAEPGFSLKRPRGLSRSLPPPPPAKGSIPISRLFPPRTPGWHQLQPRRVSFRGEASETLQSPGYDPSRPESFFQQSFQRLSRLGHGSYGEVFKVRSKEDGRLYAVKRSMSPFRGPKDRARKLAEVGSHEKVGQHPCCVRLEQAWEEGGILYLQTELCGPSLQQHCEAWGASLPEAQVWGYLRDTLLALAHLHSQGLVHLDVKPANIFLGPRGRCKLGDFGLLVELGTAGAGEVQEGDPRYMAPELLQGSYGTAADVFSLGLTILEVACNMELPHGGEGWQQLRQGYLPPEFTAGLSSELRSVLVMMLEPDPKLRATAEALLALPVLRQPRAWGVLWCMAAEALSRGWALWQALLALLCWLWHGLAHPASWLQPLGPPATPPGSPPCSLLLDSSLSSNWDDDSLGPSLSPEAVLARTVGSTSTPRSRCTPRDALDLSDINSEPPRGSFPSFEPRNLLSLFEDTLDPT

For `Nc1c(-c2ccc(F)c3[nH]ncc23)c2cc(OC3CC(C(F)F)C3)c3ncccc3c2[nH]c1=O` (stereo not drawn) [Compound C58, 3-Amino-6-[3-(difluoromethyl)cyclobutyl]oxy-4-(7-fluoro-1H-indazol-4-yl)-1H-1,7-phenanthrolin-2-one], the IC50 is 1.5 nM.

`Nc1c(-c2ccc(F)c3[nH]ncc23)c2cc(C3CNC3)c3cccnc3c2[nH]c1=O` [Compound D28, 3-Amino-6-(azetidin-3-yl)-4-(7-fluoro-1H-indazol-4-yl)-1H-1,10-phenanthrolin-2-one] came in with an IC50 of 1.7 nM.

Compound `Nc1c(-c2cc(F)c(F)c3[nH]ncc23)c2cc(OCC3(F)CC3)c3ncccc3c2[nH]c1=O` [Compound C71, 3-Amino-4-(6,7-difluoro-1H-indazol-4-yl)-6-[(1-fluorocyclopropyl)methoxy]-1H-1,7-one] returned an IC50 of 1.7 nM.

In the case of `CN1CC(c2ccc3[nH]c(=O)c(N)c(-c4ccc(Cl)c5[nH]ncc45)c3c2)C1` [Compound A39, 3-Amino-4-(7-chloro-1H-indazol-4-yl)-6-(1-methylazetidin-3-yl)-1H-quinolin-2-one], the IC50 was 23 nM.

The compound `Nc1c(-c2ccc(F)c3[nH]ncc23)c2cc(N3CCN4CCOC[C@@H]4C3)c3cccnc3c2[nH]c1=O` [Compound D13, 6-[(9aS)-3,4,6,7,9,9a-hexahydro-1H-pyrazino[2,1-c][1,4]oxazin-8-yl]-3-amino-4-(7-fluoro-1H-indazol-4-yl)-1H-1,10-phenanthrolin-2-one] showed an IC50 of 25 nM.

As for `Cc1cc(Cl)cc2c(-c3ccc(Cl)c4[nH]ncc34)c(N)c(=O)[nH]c12` [Compound A26, 3-Amino-6-chloro-4-(7-chloro-1H-indazol-4-yl)-8-methyl-1H-quinolin-2-one], the IC50 is 11 nM.

Turning to `CC[C@@H](C)Oc1cc2c(-c3ccc(F)c4[nH]ncc34)c(N)c(=O)[nH]c2c2nccnc12` [Compound G14, 8-Amino-5-[(2R)-butan-2-yl]oxy-7-(7-fluoro-1H-indazol-4-yl)-10H-pyrido[2,3-f]quinoxalin-9-one], the IC50 is 0.69 nM.

The compound `N#Cc1cc2c(-c3ccc(F)c4[nH]ncc34)c(N)c(=O)[nH]c2c2cccnc12` [Compound C87, 3-Amino-4-(7-fluoro-1H-indazol-4-yl)-2-oxo-1H-1,7-phenanthroline-6-carbonitrile] displayed a 50% inhibitory concentration (IC50) of 18 nM.

`Cc1cc2c(-c3ccc(F)c4[nH]ncc34)c(N)c(=O)[nH]c2c2ncncc12` [Compound J2, 8-Amino-7-(7-fluoro-1H-indazol-4-yl)-5-methyl-10H-pyrido[3,2-h]quinazolin-9-one] had an IC50 of 3.1 nM.

In turn, `Nc1c(-c2ccc(F)c3[nH]ncc23)c2cc(C3CCNCC3)c3cccnc3c2[nH]c1=O` [Compound D21, 3-Amino-4-(7-fluoro-1H-indazol-4-yl)-6-piperidin-4-yl-1H-1,10-phenanthrolin-2-one] displayed an IC50 of 3.8 nM.

As to `COc1cccc(-c2c(N)c(=O)[nH]c3c2ccc2ccccc23)c1` [Compound B1, 3-Amino-4-(3-methoxyphenyl)-1H-benzo[h]quinolin-2-one], the half-maximal inhibitory concentration (IC50) came to 5600 nM.

`N#Cc1cc2c(-c3ccc(Cl)c4[nH]ncc34)c(N)c(=O)[nH]c2c2cccnc12` [Compound C148, 3-Amino-4-(7-chloro-1H-indazol-4-yl)-2-oxo-1H-1,7-phenanthroline-6-carbonitrile] displayed an IC50 of 4.1 nM.

`N#C[C@H]1C[C@@H](c2cc3c(-c4ccc(F)c5[nH]ncc45)c(N)c(=O)[nH]c3c3cccnc32)C1` [Compound C178, (1s,3s)-3-[3-Amino-4-(7-fluoro-1H-indazol-4-yl)-2-oxo-1H-1,7-phenanthrolin-6-yl]cyclobutane-1-carbonitrile] showed an IC50 of 2.3 nM.

The compound `CC(c1cc2c(-c3ccc(F)c4[nH]ncc34)c(N)c(=O)[nH]c2c2cccnc12)C(F)(F)F` (stereo not drawn) [Compound C168, 3-Amino-4-(7-fluoro-1H-indazol-4-yl)-6-(1,1,1-trifluoropropan-2-yl)-1H-1,7-phenanthrolin-2-one] yielded an IC50 of 54 nM.

Compound `Cn1cc(-c2cc3c(-c4cc(F)c(F)c5[nH]ncc45)c(N)c(=O)[nH]c3c3cccnc23)cn1` [Compound C207, 3-Amino-4-(6,7-difluoro-1H-indazol-4-yl)-6-(1-methylpyrazol-4-yl)-1H-1,7-phenanthrolin-2-one] showed an IC50 of 1 nM.

As for `N#C[C@H]1C[C@@H](Oc2cc3c(-c4ccc(F)c5[nH]ncc45)c(N)c(=O)[nH]c3c3cccnc23)C1` [Compound C33, (1s,3s)-3-[[3-Amino-4-(7-fluoro-1H-indazol-4-yl)-2-oxo-1H-1,7-phenanthrolin-6-yl]oxy]cyclobutane-1-carbonitrile], the IC50 was 3.5 nM.

In turn, `Nc1c(-c2ccc(F)c3[nH]ncc23)c2cc(O[C@H]3C[C@@H](F)C3)c3ncccc3c2[nH]c1=O` [Compound C28, 3-Amino-4-(7-fluoro-1H-indazol-4-yl)-6-((1s,3s)-3-fluorocyclobutoxy)-1,7-phenanthrolin-2(1H)-one] registered an IC50 of 1.8 nM.

In turn, `Nc1c(-c2ccc(Cl)c3[nH]ncc23)c2cc(OCC3(F)CC3)c(F)cc2[nH]c1=O` [Compound A72, 3-Amino-4-(7-chloro-1H-indazol-4-yl)-7-fluoro-6-[(1-fluorocyclopropyl)methoxy]-1H-quinolin-2-one] displayed an IC50 of 96 nM.

In turn, `Nc1c(-c2ccc(F)c3[nH]ncc23)c2cc(N3CCOCC3)c3cccnc3c2[nH]c1=O` [Compound D9, 3-Amino-4-(7-fluoro-1H-indazol-4-yl)-6-morpholin-4-yl-1H-1,10-phenanthrolin-2-one] gave an IC50 of 22 nM.

Regarding `Nc1c(-c2ccc(F)c3[nH]ncc23)c2cc(OCC3(F)CCC3)c3ncccc3c2[nH]c1=O` [Compound C56, 3-Amino-6-[(1-fluorocyclobutyl)methoxy]-4-(7-fluoro-1H-indazol-4-yl)-1H-1,7-phenanthrolin-2-one], the IC50 turned out to be 1.7 nM.

`Nc1c(-c2ccc(F)c3[nH]ncc23)c2cc(NS(=O)(=O)C3CC3)c3nccnc3c2[nH]c1=O` [Compound G6, N-[8-amino-7-(7-fluoro-1H-indazol-4-yl)-9-oxo-10H-pyrido[2,3-f]quinoxalin-5-yl]cyclopropanesulfonamide] gave an IC50 of 7.4 nM.

As for `Nc1c(-c2ccc(F)c3[nH]ncc23)c2cc(OCC3CCC3)c3ncccc3c2[nH]c1=O` [Compound C9, 3-Amino-6-(cyclobutylmethoxy)-4-(7-fluoro-1H-indazol-4-yl)-1H-1,7-phenanthrolin-2-one], the IC50 turned out to be 3.2 nM.

`Nc1c(-c2ccc(F)c3[nH]ncc23)c2cc(C3CC3(F)F)c3ncccc3c2[nH]c1=O` (stereo not drawn) [Compound C145, 3-Amino-6-(2,2-difluorocyclopropyl)-4-(7-fluoro-1H-indazol-4-yl)-1H-1,7-phenanthrolin-2-one] returned an IC50 of 3.1 nM.

On to `Nc1c(-c2ccc3cn[nH]c3c2)c2cc(Cl)ccc2[nH]c1=O` [Compound A49, 3-Amino-6-chloro-4-(1H-indazol-6-yl)-1H-quinolin-2-one], for which the IC50 was found to be 790 nM.

On to `CC(C)CCc1cc2c(-c3ccc(F)c4[nH]ncc34)c(N)c(=O)[nH]c2c2cccnc12` [Compound C107, 3-Amino-4-(7-fluoro-1H-indazol-4-yl)-6-(3-methylbutyl)-1H-1,7-phenanthrolin-2-one], for which the IC50 is 8.1 nM.

Compound `Nc1c(-c2cccc(OC(F)F)c2)c2cc(Cl)ccc2[nH]c1=O` [Compound A50, 3-Amino-6-chloro-4-[3-(difluoromethoxy)phenyl]-1H-quinolin-2-one] had an IC50 of 5800 nM.

`Nc1c(-c2ccc(Cl)c3[nH]ncc23)c2cc(OC3CCC3)c(Cl)cc2[nH]c1=O` [Compound A10, 3-Amino-7-chloro-4-(7-chloro-1H-indazol-4-yl)-6-cyclobutyloxy-1H-quinolin-2-one] displayed an IC50 of 4.3 nM.

As to `Nc1c(-c2ccc(F)c3[nH]ncc23)c2cc(OC3CCCC3)c3ncccc3c2[nH]c1=O` [Compound C6, 3-Amino-6-cyclopentyloxy-4-(7-fluoro-1H-indazol-4-yl)-1H-1,7-phenanthrolin-2-one], the IC50 stood at 1 nM.

Compound `Nc1c(-c2ccc(Cl)c3[nH]ncc23)c2cc(OC3CCC3)c(F)cc2[nH]c1=O` [Compound A7, 3-Amino-4-(7-chloro-1H-indazol-4-yl)-6-cyclobutyloxy-7-fluoro-1H-quinolin-2-one] had an IC50 of 4.4 nM.

Turning to `Nc1c(-c2ccc(F)c3[nH]ncc23)c2cc(O[C@H]3CCOC3)c3ncccc3c2[nH]c1=O` [Compound C12, 3-Amino-4-(7-fluoro-1H-indazol-4-yl)-6-[(3S)-oxolan-3-yl]oxy-1H-1,7-phenanthrolin-2-one], the IC50 is 2.2 nM.

The compound `Nc1c(-c2ccc(Cl)c3[nH]ncc23)c2cc(Br)c3ncccc3c2[nH]c1=O` [Compound C73, 3-Amino-6-bromo-4-(7-chloro-1H-indazol-4-yl)-1H-1,7-phenanthrolin-2-one] showed an IC50 of under 14 nM.

Consider `CCc1cc(Cl)cc2c(-c3ccc(Cl)c4[nH]ncc34)c(N)c(=O)[nH]c12` [Compound A25, 3-Amino-6-chloro-4-(7-chloro-1H-indazol-4-yl)-8-ethyl-1H-quinolin-2-one], for which the IC50 came to 45 nM.

Regarding `Nc1c(-c2ccc(F)c3[nH]ncc23)c2cc(OC3CC4(COC4)C3)c3ncccc3c2[nH]c1=O` [Compound C41, 3-Amino-4-(7-fluoro-1H-indazol-4-yl)-6-(2-oxaspiro[3,3]heptan-6-yloxy)-1H-1,7-one], the IC50 amounted to 6.1 nM.

In turn, `Nc1c(-c2ccc(F)c3[nH]ncc23)c2cc(C(F)(F)F)c3ncccc3c2[nH]c1=O` [Compound C187, 3-Amino-4-(7-fluoro-1H-indazol-4-yl)-6-(trifluoromethyl)-1H-1,7-phenanthrolin-2-one] registered an IC50 of 20 nM.

Compound `Nc1c(-c2ccc(F)c3[nH]ncc23)c2cc(OCCC(F)F)c3ncccc3c2[nH]c1=O` [Compound C32, 3-Amino-6-(3,3-difluoropropoxy)-4-(7-fluoro-1H-indazol-4-yl)-1H-1,7-phenanthrolin-2-one] showed an IC50 of 3.5 nM.

Regarding `N#Cc1cc(Cl)cc2c(-c3ccc(Cl)c4[nH]ncc34)c(N)c(=O)[nH]c12` [Compound A21, 3-Amino-6-chloro-4-(7-chloro-1H-indazol-4-yl)-2-oxo-1H-quinoline-8-carbonitrile], the IC50 came to 20 nM.

For the origin of these results see patent US20260062412A1, “NITROGEN-CONTAINING HETEROCYCLIC COMPOUND HAVING MYT1 INHIBITORY ACTIVITY” (CHUGAI SEIYAKU KABUSHIKI KAISHA, priority 2023, published 2026).
